Experimental data as given in patent US4997926A, “Deaminase-stable anti-retroviral 2-halo-2',3'-dideoxy” (Scripps Clinic and Research Foundation, priority 1987, dated 1991).

Tests used:
[1] = in vitro; format: in vitro ADME, human; conditions: human, cem cell culture medium
Description: (§1) Under the same condition, only about 2 percent of [2',3'-^3 H]-2'3'-dideoxyadenosine remained in the medium after 4 hours culture.
(§2) ^1 Human CEM T lymphoblasts at a density of 2 × 10^7
(§3) cells/ml were incubated for 4 hours at 37 degrees C. with either 3 uM
(§4) [8^3 H2-chloro- 2',3dideoxyadenosine, or 2 uM [2',3^3
(§5) H2',3dideoxyadenosine or 2 uM [2',3^3 H2',3dideoxyinosine. Then the
(§6) dideoxynucleosides in the cultures were quantitated after separation by
(§7) HPLC. In these studies, the intracellular dideoxynucleotide content after
(§8) The human T lymphoblastoid cell line, CCRF-CEM, and mutants deficient in either deoxycytidine kinase (clone AraC-8D), or deoxycytidine kinase plus adenosine kinase (clone AraC-8DM10-5) were obtained and propagated as described previously [Foley et al., (1965) Cancer, 18:552-529 and Hershfield et al., (1982) J. Biol. Chem., 257:6380-6386]. For metabolic studies, the cells were cultured in RPMI 1640 medium supplemented with 2 mM L-glutamine and 10 percent fetal bovine serum at a density of 2×10^7 cells/ml in the presence of radiolabelled dideoxynucleosides, as indicated earlier. Some cultures were pre-incubatedfor 30 minutes either with 5 uM 2'-deoxycoformycin or 50 uM coformycin. After 4 hours of incubation the cells were harvested by centrifugation.
(§9) The radioactive compounds in the culture medium were fractionated by thin layer chromatography. Ten microliter (ul) aliquots of medium were spotted directly on cellulose plates and developed with 1 M ammonium acetate pH 7.4. […] The respective spots were cut out and radioactivity was determined by liquid scintillation spectrometry. The identities of the spots were also confirmed by cochromatography of the radioactive counts with authentic compounds on a C18 uBondapak column, that was eluted as described above.

[2] = system: HIV in deoxycytidine kinase-deficient CEM variant; assay: HIV p24 (gag) antigen in deoxycytidine kinase deficient CEM variant; format: cell-based
From the text: Open symbols show the effects of the respective same dideoxynucelosides on HIV replication in a deoxycytidine kinase-deficient CEM variant.
HIV infection of the CEM T lymphoblastoid cell line was monitored by the release of the HIV p24 (gag) protein into the medium, exactly as described previously [Cleveland et al. (1987) J. Clin. Microbiol., 25:416-420 and Fishbein et al. (1981) Biochem. Med., 26:377-386]. The growth inhibiting effects of the nucleosides toward CEM lymphoblasts, and toward the deoxycytidine kinase deficient mutant, were also monitored as described earlier [Carson et al. (1980) Proc. Natl. Acad. Sci. USA, 77:6865-6869].

[3] = system: CEM T lymphoblasts; assay: in vitro; format: in vitro ADME, human
Description: as §1, §2, §3, §4, §5, §6, §7, §8, §9

With `Nc1ncnc2c1ncn2[C@H]1CC[C@@H](CO)O1` [2',3'-dideoxyadenosine, reference compound] the remaining at 4 h, 2 µM [1] was about 2% and the “protection from HIV infection, p24 (gag) antigen detection” value [2] was “equivalent anti-HIV activity”.

With `Nc1nc(Cl)nc2c1ncn2[C@H]1CC[C@@H](CO)O1` [2-chloro-2',3'-dideoxyadenosine] the Catabolism ([3]; Addition none, 4 hours, 37 degrees C., 2-3 uM) was 40 pmols/hr 10^8 cells and the “deamination by CEM cells” value ([3]; radiolabelled compound, medium of CEM cell cultures) was “did not significantly deaminate”.
